{
  "source": "ChEMBL document CHEMBL1143120",
  "about": "“Characterization of the two major CYP450 metabolites of ozonide (1,2,4-trioxolane) OZ277” (Bioorg Med Chem Lett, 2008)",
  "key": {"[1]": {"system": "Plasmodium falciparum", "assay": "Antimalarial activity against Plasmodium falciparum K1", "assay_type": "functional, organism-based"}, "[2]": {"assay": "Distribution coefficient, log D of the compound", "assay_type": "physicochemical", "conditions": "octanol/water"}},
  "data": [
    {"smiles": "CC(C)(N)CNC(=O)C[C@H]1CC[C@]2(CC1)OO[C@]1(O2)C2CC3CC1C[C@](O)(C3)C2", "values": [
      {"measurement": "IC50", "setting": "[1]", "value": "> 0.1", "unit": "µg/mL"},
      {"measurement": "logD", "setting": "[2]", "value": 1.8}
    ]},
    {"smiles": "CC(C)(N)CNC(=O)C[C@H]1CC[C@]2(CC1)OO[C@]1(O2)C2CC3CC1C[C@@](O)(C3)C2", "values": [
      {"measurement": "IC50", "setting": "[1]", "value": "> 0.1", "unit": "µg/mL"},
      {"measurement": "logD", "setting": "[2]", "value": 1.8}
    ]},
    {"smiles": "CC(C)(N)CNC(=O)C[C@H]1CC[C@]2(CC1)OO[C@]1(O2)C2CC3CC(C2)CC1C3", "note": "[OZ277]", "values": [
      {"measurement": "IC50", "setting": "[1]", "value": 0.001, "unit": "µg/mL"},
      {"measurement": "logD", "setting": "[2]", "value": 3.2}
    ]}
  ]
}
